Measurements taken from PMC10198994 (Scientific Reports, 2023).
Structures can show the parent of a compound that is named as a salt. Where two headings read alike, the source gives them in different places. Marks after values point to notes of the source that are not given here.

Key:
[1] = Static equilibrium solubility of HCQS in supercritical carbon dioxide (UV-vis spectrophotometer); type: physicochemical; details: for solubility thermodynamic at 1 h: thermodynamic from solid, read-out: Equilibrium solubility, S
Protocol: SCF-solubility of the drugs was experimentally measured via two broad classes of saturated solution-based methods, where solubility measurement can be done either (1) statically or (2) dynamically. […] The solubilities were measured with the help of an equilibrium cell. Thermodynamically, the method employed may be regarded as an isobaric-isothermal method. All the measurements are taken by keeping system temperatures and pressures at the desired value with high precision (i.e., ± 0.1 K and ± 0.1 MPa). Complete details about the equipment and measurement procedures are presented elsewhere[15]–[35]. However, the description of the equipment and the methodology employed in establishing solubility data are briefly presented in this section. The scCO2 is pumped to the equilibrium cell and drug sample and scCO2 are thoroughly mixed and allowed to attain equilibrium. […] To ensure equilibrium solubility, the experiments are performed with fresh samples at various time intervals. […] For each sampling a 600 µL volume saturated sample is collected via a collection valve in a deionized water preloaded sample vial. After discharging of each sample, the sampling valve was cleaned with 1 ml of deionized water. Drug sample solubility is estimated with the following formula:1 y2=ndrug/ndrug+nCO2 where y2 is solubility of the drug in scCO2, ndrug and nCO2 are number of moles of the drug and CO2 in the sampling loop, respectively.
The following formulas are used in data conversion2 ndrug=Cs·Vs/Ms 3 nCO2=V1ρ1/MCO2 where Cs is concentration of the drug in g/L. V1 = 600 × 10^–6 L and Vs = 5 × 10^–3 L are sampling loop and vial volumes, respectively. Ms and MCO2 are drug and CO2 molecular weights, respectively. ρ1 is density of scCO2 at each experimental condition, as presented in Table 2.
Solubility is also described as4 S=CSVs/V1
The solubility and mole fraction relation is described as5 S=ρMs/MCO2y2/1-y2

[2] = Total, sublimation and solvation enthalpies of HCQS in scCO2 from Chrastil, reformulated Chrastil and Bartle et al. model constants; type: physicochemical
Excerpt: In the year 1981, Josef Chrastil presented a model for the solubility of solids/liquids in SCF. The main basis of the model is a solvate complex formulation based on a simple reaction. According to Chrastil, solubility is explained by c2=c2(κ,ρ1,T) , where κ is association number, ρ1 is solvent density (scCO2) and T is temperature. Chrastil proposed Eq. (19)19 c2=ρ1κexpA1+B1/T
In the year 2009, Garlpati and Madras has reformulated Chrastil's model and it is expressed by Eq. (21), where solubility is explained by y2=y2κ^′,ρ1,T , in which κ^′ is association number, ρ1 is solvent density (scCO2) and T is temperature.21 y2=RTρ1/MScFf^∙^κ^′-1expA2+B2/T in Eq. (21), R denotes universal constant of ideal gas, MScF is molecular weight of solvent, f^∗ is reference pressure and A2 and B2 are the Reformulated model constants.
The solute sublimation enthalpy is calculated with Bartle et al., model and it is stated as23 lny2P/Pref=A4+B4/T+C4ρ1-ρref where A4 to C4 are the model constants. Using the constant B4 , sublimation enthalpy is calculated (i.e., ΔsubH=-B4R ).
Solid–liquid model requires enthalpy of fusion, molar volume and melting point of the solute. Enthalpy of fusion is estimated with the help Jain et al.[77], and molar volume of the solute is estimated with the help Immirzi and Perini method. The calculated molar enthalpy and molar volumes are 65,208 J mol^−1 and 3.306 × 10^–4 m^3 mol^−1, respectively. The melting temperature is obtained from the material safety data sheet as 240 °C. From Chrastil's model constant ( B1 ), total enthalpy is calculated ( B1 × R). From Bartle’s model constant ( B4 ), sublimation enthalpy is calculated ( ΔsubH=-B4R ). From the magnitude difference between total and sublimation enthalpies, solvation enthalpy is calculated. Similarly, from reformulated Chrastil's model constant ( B2 ) and Bartle’s model constant ( B4 ), combination solvation enthalpy is calculated. […] This may be due to a smaller number of parameters in the models; on the other hand, the correlating ability of the solvate complex models is quite good. […]

rise in solubility when temperature is raised from 308 to 338 K ([1]; 12 MPa): 4.6 folds
rise in solubility when temperature is raised from 308 to 338 K ([1]; 27 MPa): 3.8 folds
solubility thermodynamic at 1 h ([1]; supercritical carbon dioxide (scCO2) in an equilibrium cell, scCO2, 308 K, 210 bar): 93.9 µg/mL
solubility thermodynamic at 1 h ([1]; supercritical carbon dioxide (scCO2) in an equilibrium cell, scCO2, 308 K, 270 bar): 132 µg/mL
solubility thermodynamic at 1 h ([1]; supercritical carbon dioxide (scCO2) in an equilibrium cell, scCO2, 318 K, 120 bar): 40.9 µg/mL
solubility thermodynamic at 1 h ([1]; scCO2, 308 K, 150 bar): 35 µg/mL
solubility thermodynamic at 1 h ([1]; scCO2, 308 K, 180 bar): 49.7 µg/mL
solubility thermodynamic at 1 h ([1]; scCO2, 318 K, 150 bar): 80.6 µg/mL
solubility thermodynamic at 1 h ([1]; scCO2, 318 K, 210 bar): 165 µg/mL
solubility thermodynamic at 1 h ([1]; scCO2, 318 K, 240 bar): 210 µg/mL
solubility thermodynamic at 1 h ([1]; scCO2, 328 K, 120 bar): 49.4 µg/mL
solubility thermodynamic at 1 h ([1]; scCO2, 328 K, 150 bar): 103 µg/mL
solubility thermodynamic at 1 h ([1]; scCO2, 328 K, 210 bar): 207 µg/mL
solubility thermodynamic at 1 h ([1]; scCO2, 328 K, 270 bar): 356 µg/mL
solubility thermodynamic at 1 h ([1]; scCO2, 338 K, 120 bar): 53.4 µg/mL
solubility thermodynamic at 1 h ([1]; scCO2, 338 K, 150 bar): 126 µg/mL
solubility thermodynamic at 1 h ([1]; scCO2, 338 K, 180 bar): 182 µg/mL
solubility thermodynamic at 1 h ([1]; scCO2, 338 K, 210 bar): 231 µg/mL
solubility thermodynamic at 1 h ([1]; scCO2, 338 K, 240 bar): 291 µg/mL
solubility thermodynamic at 1 h ([1]; scCO2, 338 K, 270 bar): 426 µg/mL
Enthalpy of sublimation ΔHsub ([2]; Bartle et al., model constant B4): ~89.1^c (approximate value) kJ/mol
Total Enthalpy, ΔHtotal ([2]; Chrastil's model constant B1): 69.80^a kJ/mol
Total Enthalpy, ΔHtotal ([2]; Modified Chrastil's model constant B2): 62.00^b kJ/mol
SMILES: CCN(CCO)CCCC(C)Nc1ccnc2cc(Cl)ccc12 (centres unmarked) [HCQS, Hydroxychloroquine sulfate]
